What was measured:
[1] = tested on: pooled normal human citrated plasma; experiment: Test D: Determination of Activated Partial Thromboplastin Time (APTT); assay type: biochemical; settings: read-out: IC50 APTT (concentration of inhibitor in human plasma that doubles the Activated Partial Thromboplastin Time)
Experimental: Determination of Activated Partial Thromboplastin Time (APTT)
APTT is determined in pooled normal human citrated plasma with the reagent PTT Automated 5 manufactured by Stago. The inhibitors are added to the plasma (10 μL inhibitor solution to 90 μL plasma) and incubated with the APTT reagent for 3 minutes followed by the addition of 100 μL of calcium chloride solution (0.025 M) and APTT is determined by use of the coagulation analyser KC10 (Amelung) according to the instructions of the reagent producer.
(§1) The clotting time is expressed as absolute values (seconds) as well as the ratio of APTT without inhibitor (APTT0) to APTT with inhibitor (APTTi). The latter ratios (range 1–0) are plotted against the concentration of inhibitor (log transformed) and fitted to sigmoidal dose-response curves according to the equation y=a/[1+(x/IC50)^s] where: a=maximum range, i.e. 1; s=slope of the dose-response curve; and IC50=the concentration of inhibitor that doubles the clotting time. The calculations are processed on a PC using the software program GraFit Version 3, setting equation equal to: Start at 0, define end=1 (Erithacus Software, Robin Leatherbarrow, Imperial College of Science, London, UK). IC50APTT is defined as the concentration of inhibitor in human plasma that doubles the Activated Partial Thromboplastin Time. Test E Determination of Thrombin Time ex vivo

[2] = Test E: Determination of Thrombin Time ex vivo (plasma concentration of thrombin inhibitor after oral or parenteral administration); assay type: in vivo, rat; settings: conscious rats, plasma analysed by LC-MS/MS
From the text: as §1
The inhibition of thrombin after oral or parenteral administration of the compounds of the invention, dissolved in ethanol:SolutolK:water (5:5:90), is examined in conscious rats which, one or two days prior to the experiment, are equipped with a catheter for blood sampling from the carotid artery. […]
50 μL of plasma samples are precipitated with 100 μL of cold acetonitrile. […] 10 μL volumes of the resulting solutions are analysed by LC-MS/MS and the concentrations of thrombin inhibitor are determined using standard curves.

[3] = Test G: Determination of in vitro Stability, human liver microsomes; assay type: in vitro ADME; settings: liver microsomes from humans, 37° C., up to 60 min
Experimental: (§2) Plasma clearance is estimated in male Sprague Dawley rats. The compound is dissolved in water and administered as a subcutaneous bolus injection at a dose of 4 μmol/kg. Blood samples are collected at frequent intervals up to 5 hours after drug administration. Blood samples are centrifuged and plasma is separated from the blood cells and transferred to vials containing citrate (10% final concentration). 50 μL of plasma samples are precipitated with 100 μL of cold acetonitrile. The samples are centrifuged for 10 minutes at 4000 rpm. 75 μL of the supernatant is diluted with 75 μL of 0.2% formic acid. 10 μL volumes of the resulting solutions are analysed by LC-MS/MS and the concentrations of thrombin inhibitor are determined using standard curves. The area under the plasma concentration-time profile is estimated using the log/linear trapezoidal rule and extrapolated to infinite time. Plasma clearance (CL) of the compound is then determined as CL=Dose/AUC The values are reported in mL/min/kg. Test G Determination of in vitro Stability
(§3) Liver microsomes are prepared from Sprague-Dawley rats and human liver samples according to internal SOPs. […] The concentration of compound remaining (FINAL CONC) in the 60 min. sample is determined by means of LCMS using a sample collected at zero time as reference (START CONC). The % of degraded thrombin inhibitor is calculated as: […]

[4] = Test G: Determination of in vitro Stability, rat liver microsomes; assay type: in vitro ADME, Sprague-Dawley rats; settings: liver microsomes from rats, 37° C., up to 60 min
Experimental: as §2, §3

| Structure (SMILES) | IC50 [1] | oral and/or parenteral bioavailability as the corresponding active inhibitor (free amidine) [2] | conversion to the corresponding active inhibitor (free amidine) in liver microsomes [3] | conversion to the corresponding active inhibitor (free amidine) in liver microsomes [4] |
| --- | --- | --- | --- | --- |
| N=C(N)c1cc(F)c(CNC(=O)[C@@H]2CCN2C(=O)[C@H](O)c2cc(Cl)cc(OC(F)F)c2)c(F)c1 [Example 1, Ph(3-Cl)(5-OCHF2)—(R)CH(OH)C(O)—(S)Aze-Pab(2,6-diF)] | < 1000 nM | – | – | – |
| CO/N=C(\N)c1cc(F)c(CNC(=O)[C@@H]2CCN2C(=O)[C@H](O)c2cc(Cl)cc(OC(F)F)c2)c(F)c1 [Example 2, Ph(3-Cl)(5-OCHF2)—(R)CH(OH)C(O)—(S)Aze-Pab(2,6-diF)(OMe)] | – | exhibit oral and/or parenteral bioavailability in the rat as the corresponding active inhibitor (free amidine) | converted to the corresponding active inhibitor (free amidine) | converted to the corresponding active inhibitor (free amidine) |

Source: patent US7056907B2, “Mandelic acid derivatives and their use as thrombin inhibitors” (AstraZeneca AB, priority 2001, dated 2006)
